Experimental data published in patent EP1388586A2, “Identification of broadly reactive DR restricted epitopes” (priority 1998, dated 1999).
Read-outs that look alike come from different tables or passages of the source. Square brackets hold non-standard residues; d marks the D form. Ends that are not written are not given here. Peptide text beside a SMILES is read from it.

Key:
[1] = target: T1, DRB1*0401 (DR4w4) (Homo sapiens, UniProt P01903+P01911, A100K/A169T/F76Y/I96L/K127E/L162R/M171V/N62H/P40V/Q125Y/R42H/S133A/S149N/S66Y/V115G/V209L/W38E); experiment: Class II peptide-binding assay, DR4w4;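 further: unlabeled test peptides compete with a radiolabeled probe peptide for binding to affinity-purified HLA-DR, with DR amount titrated to capture a small fraction of label, IC50 approximating Kd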
T1 construct: used as sources of human HLA class II molecules; endogenous in cells; host or cells: PREISS (EBV-transformed homozygous B cell line)
Experimental: (§1) Class II peptide-binding assays. […] These assays were chosen as to be representative of the most common DR alleles.
(§2) Radiolabeled peptides were iodinated using the chloramine-T method. […] In appropriate stoichiometric conditions, the IC50 of an unlabeled test peptide to the purified DR is a reasonable approximation of the affinity of interaction (Kd). Peptides were tested in two to four completely independent experiments. […] Final detergent concentration in the incubation mixture was 0.05% Nonidet P-40. Assays were performed at pH 7.0 with the exception of DR3, which was performed at pH 4.5, and DRw53, which was performed at pH 5.0.
(§3) All subsequent inhibition and direct binding assays were the performed using these class II concentrations.

[2] = target: T2, DRB5*0101 (DR2w2a) (Homo sapiens, UniProt P01903+Q30154); experiment: Class II peptide-binding assay, DR2w2a (DR2w2B2);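 further: competitive binding assay: unlabeled peptide inhibiting binding of a radiolabeled probe peptide to purified DR molecules at pH 7.0, IC50 approximating Kd, lower means stronger binding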
T2 construct: used as sources of human HLA class II molecules; endogenous in cells; host or cells: GM3107 (EBV-transformed homozygous B cell line)

[3] = target: T3, DRB1*0101 (DR1) (Homo sapiens, UniProt P01903+P01911, A100R/D57E/F55L/F60I/F76Y/I96L/L162R/M171V/P40L/Q125E/R42F/V115G/Y59C); experiment: Class II peptide-binding assay, DR1;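 further: competition assay: unlabeled test peptides inhibit binding of a radiolabeled probe peptide to purified DR, with half-maximal inhibition taken as an approximate dissociation constant Kd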
T3 construct: used as sources of human HLA class II molecules; endogenous in cells; host or cells: LG2 (EBV-transformed homozygous B cell line)
Experimental: as §1, §2, §3

[4] = target: T4, DRB1*1101 (DR5w11) (Homo sapiens, UniProt P01903+P01911, A100R/A169T/A87E/I96F/K41T/L162R/M171V/P40S/Q125H/Q178H/Q39Y/Q99D/R42S/S66Y/T262R/V115G/W38E); experiment: Class II peptide-binding assay, DR5w11;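 further: competition by unlabeled test peptide against iodinated probe peptide binding to affinity-purified HLA-DR, class II amount titrated beforehand, half-maximal inhibitory concentration read as approximate Kd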
T4 construct: used as sources of human HLA class II molecules; endogenous in cells; host or cells: SWEIG (EBV-transformed homozygous B cell line)

[5] = target: DRB1*0701 (DR7) (Homo sapiens, UniProt P01903+P01911, A100R/A102G/A103Q/D57E/D86V/E43K/F76Y/K127E/L162R/M171V/P40G/Q125H/Q99D/R33Q/R42Y/R54Q/S133A/S66F/T210M/V115G/Y107V/Y59L/Y89S); experiment: Class II peptide-binding assay, DR7;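 further: unlabeled peptides compete with an iodinated probe peptide for binding to affinity-purified HLA-DR at neutral pH, DR amount titered to bind a small tracer fraction, IC50 approximating Kd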
[6] = target: T5, DRB10404 (DR4w14) (Homo sapiens, UniProt P01903+P01911, A100R/A169T/F76Y/I96L/K127E/L162R/M171V/N62H/P40V/Q125Y/R42H/S133A/S149N/S66Y/V209L/W38E); experiment: Class II peptide-binding assay, DR4w14;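 further: unlabeled peptides compete with a radiolabeled probe for binding to affinity-purified HLA-DR, neutral pH, class II amount titrated to bind a small fraction of label, IC50 approximates Kd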
T5 construct: used as sources of human HLA class II molecules; endogenous in cells; host or cells: BIN40 (EBV-transformed homozygous B cell line)
Experimental: as §1
In appropriate stoichiometric conditions, the IC50 of an unlabeled test peptide to the purified DR is a reasonable approximation of the affinity of interaction (Kd). Peptides were tested in two to four completely independent experiments. […] Final detergent concentration in the incubation mixture was 0.05% Nonidet P-40. Assays were performed at pH 7.0 with the exception of DR3, which was performed at pH 4.5, and DRw53, which was performed at pH 5.0.
as §3

[7] = read-out: DR4w4 nM, Table VIII, In IC50 Format
[8] = read-out: DR2w2B2 nM, Table VIII, In IC50 Format
[9] = read-out: DR1 nM, Table VIII, In IC50 Format
[10] = read-out: DR5w11 nM, Table VIII, In IC50 Format
[11] = read-out: DR4w4 nM (In IC50 Format), purified HLA DR4w4
[12] = read-out: DR2w2B2 nM (In IC50 Format), purified HLA DR2w2β2
[13] = read-out: DR1 nM (In IC50 Format), purified HLA DR1
[14] = read-out: DR5w11 nM (In IC50 Format), purified HLA DR5w11
[15] = read-out: DR7 nM (In IC50 Format), purified HLA DR7
[16] = read-out: DR4w14 nM (In IC50 Format), purified HLA DR4w14

T4 sequence (P01903 26-254, other chains not shown): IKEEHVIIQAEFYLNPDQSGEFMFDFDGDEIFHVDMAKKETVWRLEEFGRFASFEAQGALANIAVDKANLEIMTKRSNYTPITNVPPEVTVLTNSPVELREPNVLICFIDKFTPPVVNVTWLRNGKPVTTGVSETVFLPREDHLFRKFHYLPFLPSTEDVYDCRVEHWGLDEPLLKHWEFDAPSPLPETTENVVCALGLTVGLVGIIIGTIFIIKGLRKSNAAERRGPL

Molecule	IC50 [1, 11] [nM]	IC50 [2, 12] [nM]	IC50 [3, 13] [nM]	IC50 [4, 14] [nM]	IC50 [5, 15] [nM]	IC50 [6, 16] [nM]	also measured
CC(C)C[C@H](NC(=O)[C@@H](NC(=O)[C@@H](NC(=O)[C@H](CCC(N)=O)NC(=O)[C@H](CO)NC(=O)[C@H](CCC(N)=O)NC(=O)[C@H](Cc1ccccc1)NC(=O)[C@H](CCCNC(=N)N)NC(=O)[C@H](C)NC(=O)[C@H](N)Cc1ccc(O)cc1)[C@@H](C)O)[C@@H](C)O)C(=O)N[C@@H](CCCCN)C(=O)N[C@@H](C)C(=O)N[C@@H](CCCCN)C(=O)N[C@@H](C(N)=O)[C@H](C)O [Peptide 858.06] (H-[dY]ARFQSQTTLKAK[dT]-NH2)							IC50 [1, 7]: 5 nM; IC50 [2, 8]: 64 nM; IC50 [3, 9]: 4.5 nM; IC50 [4, 10]: 18.2 nM
C[C@H](NC(=O)[C@H](C)NC(=O)[C@H](C)NC(=O)[C@H](C)NC(=O)[C@H](Cc1ccc(O)cc1)NC(=O)[C@H](C)NC(=O)[C@@H](C)N)C(=O)N[C@@H](C)C(=O)N[C@@H](C)C(=O)N[C@@H](CCCCN)C(=O)N[C@@H](C)C(=O)N[C@@H](C)C(=O)N[C@H](C)C(N)=O [Peptide 762.01] (H-[dA]AYAAAAAAKAA[dA]-NH2)	7.1	27.4	1.7	46.8	1670		
CC(C)C[C@H](NC(=O)[C@@H](NC(=O)[C@@H](NC(=O)[C@H](CCC(N)=O)NC(=O)[C@H](CCCCN)NC(=O)[C@H](CC(=O)O)NC(=O)[C@H](Cc1ccccc1)NC(=O)[C@@H](CCCNC(=N)N)NC(=O)[C@H](C)NC(=O)[C@H](N)Cc1ccc(O)cc1)[C@@H](C)O)[C@@H](C)O)C(=O)N[C@@H](CCCCN)C(=O)N[C@@H](C)C(=O)N[C@@H](C)C(=O)N[C@H](C)C(=O)O [Peptide 781.19] (H-[dY]A[dR]FDKQTTLKAA[dA]-OH)	8.1	3330	60.2	47.5		96.6	
ASQKRPSQRSKYLATAST [Peptide 765.011]	321	2500	313	4440	961		
YARYQSQTTLKAKT-NH2 [Peptide 717.42]	3.1	364	7.8	14.3		66.7	
INSWVESQTNGIIR [Peptide 608.02]							IC50 ([1]; read-out: In IC50 Format DR4w4, Table VIII): 375 nM; IC50 ([2]; read-out: In IC50 Format DR2w2β2, Table VIII): > 10000 nM; IC50 ([6]; read-out: In IC50 Format DR4w14, Table VIII): 16700 nM; IC50 ([3]; read-out: In IC50 Format DR1, Table VIII): 556 nM; IC50 ([5]; read-out: In IC50 Format DR7, Table VIII): 14.7 nM
YARFQSQTTLKAET-NH2 [Peptide 717.26]	18		35.7		4170	20	
KSNTATSATQRLANSLVH [Peptide 735.01]	441		313	1330	12500	352	
YARFQFQTTLKAKT-NH2 [Peptide 717.46]		40	4.5	3.7	4170	2.6	
CC(C)C[C@H](NC(=O)[C@@H](NC(=O)[C@@H](NC(=O)[C@H](CCC(N)=O)NC(=O)[C@H](CO)NC(=O)[C@H](CCC(N)=O)NC(=O)[C@H](Cc1ccccc1)NC(=O)[C@H](CCCCN)NC(=O)[C@H](C)NC(=O)[C@H](N)Cc1ccc(O)cc1)[C@@H](C)O)[C@@H](C)O)C(=O)N[C@@H](CCCCN)C(=O)N[C@@H](C)C(=O)N[C@@H](CCCCN)C(=O)N[C@@H](C(N)=O)[C@H](C)O [Peptide 858.02] (H-[dY]AKFQSQTTLKAK[dT]-NH2)							IC50 [1, 7]: 6.4 nM; IC50 [2, 8]: 32.4 nM; IC50 ([6]; read-out: DR4w14 nM, Table VIII, In IC50 Format): 17.9 nM; IC50 [3, 9]: 9 nM; IC50 [4, 10]: 16.3 nM
YARFQSQTTLEAKT-NH2 [Peptide 717.22]	11.8	870	7.9	29.4	2780		
CC(C)C[C@H](NC(=O)[C@@H](NC(=O)[C@@H](NC(=O)[C@H](CCC(N)=O)NC(=O)[C@H](CCCNC(=N)N)NC(=O)[C@H](CCC(N)=O)NC(=O)[C@H](Cc1ccccc1)NC(=O)[C@H](CCCNC(=N)N)NC(=O)[C@H](C)NC(=O)[C@H](N)Cc1ccc(O)cc1)[C@@H](C)O)[C@@H](C)O)C(=O)N[C@@H](CCCCN)C(=O)N[C@@H](C)C(=O)N[C@@H](C)C(=O)N[C@H](C)C(N)=O [Peptide 781.09] (H-[dY]ARFQRQTTLKAA[dA]-NH2)	2	37.7	2.8	7.4		7.4	
CC(C)C[C@H](NC(=O)[C@@H](NC(=O)[C@@H](NC(=O)[C@H](CCC(N)=O)NC(=O)[C@H](CCCNC(=N)N)NC(=O)[C@H](CCC(N)=O)NC(=O)[C@@H](N)Cc1ccccc1)[C@@H](C)O)[C@@H](C)O)C(=O)N[C@@H](CCCCN)C(=O)N[C@@H](C)C(=O)N[C@@H](C)C(=O)N[C@H](C)C(N)=O [Peptide 781.06] (H-FQRQTTLKAA[dA]-NH2)	2.4		19.2			13.9	
CC[C@H](C)[C@H](NC(=O)[C@H](CCSC)NC(=O)[C@H](Cc1c[nH]c2ccccc12)NC(=O)[C@H](CS)NC(=O)[C@H](CCCCN)NC(=O)[C@@H](NC(=O)[C@H](CCSC)NC(=O)[C@@H](NC(=O)[C@H](CCSC)NC(=O)[C@H](Cc1ccc(O)cc1)NC(=O)[C@@H](NC(=O)[C@@H](N)CC(=O)O)C(C)C)[C@@H](C)CC)C(C)C)C(=O)N[C@@H](CC(=O)O)C(=O)N[C@@H](CO)C(=O)N[C@@H](CCC(=O)O)C(=O)O [Peptide 39.0277]							IC50 ([1]; Table VIII, page 2, read-out: In IC50 Format DR4w4 nM): 790 nM; IC50 ([4]; Table VIII, page 2, read-out: In IC50 Format DR5w11 nM): 909 nM
YARFQSQTPLKAKT-NH2 [Peptide 717.37]	9	64.5	2.5	8		67.5	
QPDVRPQPPSPREGP [Peptide 39.0280]							IC50 ([3]; Table VIII, page 2, read-out: In IC50 Format DR1): 7140 nM
YARFQRQTTLKIAT [Peptide 716.01]	16.7	95.2	2.9		42.7	111	
LMAMGITDVFSSSANLSGI [Peptide 705.08]	14.1		417	2500	403		
YARFQSETTEKAKT-NH2 [Peptide 717.07]	64.3	5000				806	
CC[C@H](C)[C@H](NC(=O)[C@@H](NC(=O)[C@H](CC(C)C)NC(=O)[C@@H](NC(=O)[C@@H]1CCCN1C(=O)[C@H](CCCNC(=N)N)NC(=O)[C@@H](N)CCCNC(=N)N)[C@@H](C)CC)[C@@H](C)O)C(=O)N[C@H](C(=O)N[C@H](C(=O)N[C@@H](CC(C)C)C(=O)N[C@@H](CCC(=O)O)C(=O)N[C@@H](CC(=O)O)C(=O)N[C@@H](CO)C(=O)N[C@@H](CO)C(=O)NCC(=O)O)[C@@H](C)O)[C@@H](C)CC [Peptide 39.0310]							IC50 ([5]; read-out: In IC50 Format DR7 nM, Table VIII, page 2): 10900 nM
